Numbered stars: 1 amine (or outer) side, 2 acyl side, 3 side chain; on linkers, the order of the positions; unused ones are H or OH. Bridge positions count the residues as written; N and C are the ends. Square brackets hold non-standard residues; d marks the D form. Peptide text beside a SMILES is read from it. * marks the point of attachment. Cysteamide = C(CS[*:3])N[*:1]; 4Amb = NCc1ccc(C(=O)O)cc1; Orn = NCCC[C@H](N)C(=O)O; Bz = O=C(c1ccccc1)*; βAla = NCCC(=O)O; Mpa = O=C(O)CCS

The experiment deals with T1, thrombin (Homo sapiens, UniProt P00734).
T1 construct: consists of two polypeptide chains of 36 (light chain) and 259 amino acid
In words: Thrombin inhibition screen of crude macrocycle reactions (residual thrombin activity, fluorogenic substrate Z-Gly-Gly-Arg-AMC). Format: biochemical. Particulars: 10 µM macrocycle concentration; crude reactions, Library 1a-l; scaffold AA1-AA2-AA3 combined with 1-16 or '-'. The protocol:
As a proof-of-concept, we screened the macrocycle library for inhibitors against thrombin, which is the central blood coagulation protease and an important therapeutic target. We conducted the screen for thrombin-inhibiting macrocycles in 384-well reaction plates. Briefly, each well contained a unique macrocycle (10 μM), 5 μL of thrombin (2 nM final conc.), and subsequently, 5 µL of a fluorogenic substrate to measure the residual thrombin activity and the extent of protease inhibition.
The assays were performed in 384-well plates using Tris buffer at pH 7.4 (100 mM Tris-Cl, 150 mM NaCl, 10 mM MgCl2, 1 mM CaCl2, 0.1% w/v BSA, 0.01% v/v Triton-X100, and 0.6% v/v DMSO) using thrombin at a final concentration of 2 nM and the fluorogenic substrate Z-Gly-Gly-Arg-AMC at a final concentration of 50 μM. Thrombin (5 μL, 6 nM) in the Tris-Cl buffer described above was added to each peptide using a BioTek MultiFlo microplate dispenser, and incubated for 10 min at room temperature. […] Data was collected and exported using the Tecan Infinite M200 Pro instrument software. […] For the negative controls (20 wells containing DMSO but no macrocycle), an average slope was calculated. The percent of thrombin inhibition was calculated by dividing the slopes and multiplying the results by 100.
As to `CC(C)C[C@@H]1NC(=O)CCNC(=O)CCSSCCNC(=O)[C@H](CCCNC(=O)c2c[nH]c(=O)[nH]c2=O)NC1=O` [B2-L-D2/11], the “percent residual thrombin activity” value turned out to be 112.783%.

In the case of `CC(C)C[C@@H]1NC(=O)CCNC(=O)CCSSCCNC(=O)[C@H](CCCNC(=O)c2ccco2)NC1=O` [B2-L-D2/16], the “percent residual thrombin activity” value was determined as 111.509%.

For `CC(C)C[C@@H]1NC(=O)CCNC(=O)CCSSCCNC(=O)[C@H](CCCN)NC1=O` [B2-L-D2/-] ([Mpa][βAla]L[Orn]-Cysteamide; disulfide 1-C), the “percent residual thrombin activity” value is given as 113.32%.

With `O=C1CCSSCCNC(=O)[C@H](Cc2ccc(O)cc2)NC(=O)[C@H](CCCCNC(=O)c2c[nH]c(=O)cn2)NC(=O)c2ccc(cc2)CN1` [B3-D1-Y/9], the “percent residual thrombin activity” value is reported as 101.633%.

For the compound `COc1ccc(C(=O)NCCCC[C@@H]2NC(=O)c3ccc(cc3)CNC(=O)CCSSCCNC(=O)[C@H](Cc3ccc(O)cc3)NC2=O)cn1` [B3-D1-Y/10], the “percent residual thrombin activity” value was 99.2373%.

As for `COc1ccc(C(=O)NCCCC[C@@H]2NC(=O)[C@H](Cc3cnc[nH]3)NC(=O)c3ccc(cc3)CNC(=O)CCSSCCNC2=O)cn1` [B3-H-D1/10], the “percent residual thrombin activity” value came out at 107.476%.

In the case of `O=C1CCSSCCNC(=O)[C@H](CCCCNC(=O)c2c[nH]c(=O)[nH]c2=O)NC(=O)[C@H](Cc2c[nH]cn2)NC(=O)c2ccc(cc2)CN1` [B3-H-D1/11], the “percent residual thrombin activity” value was 112.941%.

As to `O=C1CCSSCCNC(=O)[C@H](CCCCNC(=O)c2ccc(Cl)s2)NC(=O)[C@H](Cc2c[nH]cn2)NC(=O)c2ccc(cc2)CN1` [B3-H-D1/14], the “percent residual thrombin activity” value is reported as 102.666%.

`O=C1CCSSCCNC(=O)[C@H](CCCCNC(=O)c2ccco2)NC(=O)[C@H](Cc2cnc[nH]2)NC(=O)c2ccc(cc2)CN1` [B3-H-D1/16]: the “percent residual thrombin activity” value is recorded as 107.22%.

In the case of `CC(C)[C@@H]1NC(=O)c2ccc(cc2)CNC(=O)CCSSCCNC(=O)[C@H](CCCCNC(=O)c2c[nH]c(=O)cn2)NC1=O` [B3-V-D1/9], the “percent residual thrombin activity” value is 107.378%.

In the case of `COc1ccc(C(=O)NCCCC[C@@H]2NC(=O)[C@H](C(C)C)NC(=O)c3ccc(cc3)CNC(=O)CCSSCCNC2=O)cn1` [B3-V-D1/10], the “percent residual thrombin activity” value amounted to 106.658%.

Turning to `O=C1CCSSCCNC(=O)[C@H](CCCCNC(=O)c2ccccc2)NC(=O)[C@@H](Cc2ccc(O)cc2)NC(=O)c2ccc(cc2)CN1` [B3-y-D1/1] ([Mpa][4Amb][dY]K(Bz)-Cysteamide; disulfide 1-C), the “percent residual thrombin activity” value worked out at 107.146%.

Turning to `Cc1nnsc1C(=O)NCCCC[C@@H]1NC(=O)[C@@H](Cc2ccc(O)cc2)NC(=O)c2ccc(cc2)CNC(=O)CCSSCCNC1=O` [B3-y-D1/15], the “percent residual thrombin activity” value is on record as 112.065%.

Turning to `O=C(COc1ccccc1)NCCCC[C@@H]1NC(=O)[C@H]2CCCN(C2)C(=O)CCSSCCNC(=O)[C@H](CO)NC1=O` [B4-D1-S/13], the “percent residual thrombin activity” value is given as 103.519%.

On to `O=C(NCCCC[C@@H]1NC(=O)[C@@H](Cc2c[nH]c3ccccc23)NC(=O)[C@H]2CCCN(C2)C(=O)CCSSCCNC1=O)c1ccccc1` [B4-W-D1/1], for which the “percent residual thrombin activity” value worked out at 101.061%.

Take `CC(C)CC(=O)NCCCC[C@@H]1NC(=O)[C@@H](Cc2c[nH]c3ccccc23)NC(=O)[C@H]2CCCN(C2)C(=O)CCSSCCNC1=O` [B4-W-D1/8]: the “percent residual thrombin activity” value is recorded as 98.2761%.

`O=C(NCCCC[C@@H]1NC(=O)[C@@H](Cc2c[nH]c3ccccc23)NC(=O)[C@H]2CCCN(C2)C(=O)CCSSCCNC1=O)c1c[nH]c(=O)cn1` [B4-W-D1/9]: the “percent residual thrombin activity” value amounted to 96.1174%.

Take `O=C(COc1ccccc1)NCCCC[C@@H]1NC(=O)[C@@H](Cc2c[nH]c3ccccc23)NC(=O)[C@H]2CCCN(C2)C(=O)CCSSCCNC1=O` [B4-W-D1/13]: the “percent residual thrombin activity” value came to 97.6967%.

Regarding `O=C(NCCCC[C@@H]1NC(=O)[C@@H](Cc2c[nH]c3ccccc23)NC(=O)[C@H]2CCCN(C2)C(=O)CCSSCCNC1=O)c1ccc(Cl)s1` [B4-W-D1/14], the “percent residual thrombin activity” value turned out to be 84.8525%.

As for `NCCCC[C@@H]1NC(=O)[C@@H](Cc2c[nH]c3ccccc23)NC(=O)[C@H]2CCCN(C2)C(=O)CCSSCCNC1=O` [B4-W-D1/-], the “percent residual thrombin activity” value is 98.9418%.

Consider `O=C(NCCCC[C@@H]1NC(=O)[C@@H](Cc2c[nH]c3ccccc23)NC(=O)[C@H]2CCCN(C2)C(=O)CCSSCCNC1=O)c1ccccc1` [B4-w-D1/1], for which the “percent residual thrombin activity” value is listed as 105.33%.

On to `CC(C)CC(=O)NCCCC[C@@H]1NC(=O)[C@@H](Cc2c[nH]c3ccccc23)NC(=O)[C@H]2CCCN(C2)C(=O)CCSSCCNC1=O` [B4-w-D1/8], for which the “percent residual thrombin activity” value is recorded as 116.689%.

For `O=C(NCCCC[C@@H]1NC(=O)[C@@H](Cc2c[nH]c3ccccc23)NC(=O)[C@H]2CCCN(C2)C(=O)CCSSCCNC1=O)c1c[nH]c(=O)cn1` [B4-w-D1/9], the “percent residual thrombin activity” value was found to be 111.618%.

As to `O=C(COc1ccccc1)NCCCC[C@@H]1NC(=O)[C@@H](Cc2c[nH]c3ccccc23)NC(=O)[C@H]2CCCN(C2)C(=O)CCSSCCNC1=O` [B4-w-D1/13], the “percent residual thrombin activity” value is reported as 115.4%.

As to `O=C(NCCCC[C@@H]1NC(=O)[C@@H](Cc2c[nH]c3ccccc23)NC(=O)[C@H]2CCCN(C2)C(=O)CCSSCCNC1=O)c1ccc(Cl)s1` [B4-w-D1/14], the “percent residual thrombin activity” value is given as 105.59%.

Consider `NCCCC[C@@H]1NC(=O)[C@@H](Cc2c[nH]c3ccccc23)NC(=O)[C@H]2CCCN(C2)C(=O)CCSSCCNC1=O` [B4-w-D1/-], for which the “percent residual thrombin activity” value amounted to 108.066%.

For `O=C1CCSSCCNC(=O)[C@H](Cc2c[nH]c3ccccc23)NC(=O)[C@H](CCCCNC(=O)c2ccc(Cl)s2)NC(=O)c2cccc(c2)CN1` [B5-D1-W/14], the “percent residual thrombin activity” value is on record as 107.115%.

Consider `CC[C@H](C)[C@@H]1NC(=O)[C@H](CCCNC(=O)c2cnccn2)NC(=O)c2cccc(c2)CNC(=O)CCSSCCNC1=O` [B5-D2-I/2], for which the “percent residual thrombin activity” value is 109.077%.

Turning to `CC[C@H](C)[C@@H]1NC(=O)[C@H](CCCNC(=O)c2cc(C)on2)NC(=O)c2cccc(c2)CNC(=O)CCSSCCNC1=O` [B5-D2-I/3], the “percent residual thrombin activity” value worked out at 102.465%.

Turning to `CC[C@H](C)[C@@H]1NC(=O)[C@H](CCCNC(=O)c2c[nH]c(=O)[nH]c2=O)NC(=O)c2cccc(c2)CNC(=O)CCSSCCNC1=O` [B5-D2-I/11], the “percent residual thrombin activity” value is 108.374%.

For `CC[C@H](C)[C@@H]1NC(=O)[C@H](CCCNC(=O)Cc2c[nH]c3ccccc23)NC(=O)c2cccc(c2)CNC(=O)CCSSCCNC1=O` [B5-D2-I/12], the “percent residual thrombin activity” value was 103.906%.

For `CC[C@H](C)[C@@H]1NC(=O)[C@H](CCCNC(=O)COc2ccccc2)NC(=O)c2cccc(c2)CNC(=O)CCSSCCNC1=O` [B5-D2-I/13], the “percent residual thrombin activity” value was 106.564%.

For `CC[C@H](C)[C@@H]1NC(=O)[C@H](CCCNC(=O)c2snnc2C)NC(=O)c2cccc(c2)CNC(=O)CCSSCCNC1=O` [B5-D2-I/15], the “percent residual thrombin activity” value is on record as 106.982%.

Turning to `CC[C@H](C)[C@@H]1NC(=O)[C@H](CCCNC(=O)c2ccco2)NC(=O)c2cccc(c2)CNC(=O)CCSSCCNC1=O` [B5-D2-I/16], the “percent residual thrombin activity” value was determined as 105.125%.

In the case of `COc1ccc(C(=O)NCCCC[C@@H]2NC(=O)[C@H](CO)NC(=O)c3cccc(c3)CNC(=O)CCSSCCNC2=O)cn1` [B5-S-D1/10], the “percent residual thrombin activity” value was determined as 101.444%.

With `CC(C)CC(=O)NCCCC[C@@H]1NC(=O)C2(CC2)CNC(=O)CCSSCCNC(=O)[C@H](CCC(N)=O)NC1=O` [B6-D1-Q/8], the “percent residual thrombin activity” value came to 101.194%.

In the case of `NC(=O)CC[C@@H]1NC(=O)[C@H](CCCCNC(=O)c2c[nH]c(=O)[nH]c2=O)NC(=O)C2(CC2)CNC(=O)CCSSCCNC1=O` [B6-D1-Q/11], the “percent residual thrombin activity” value stood at 105.488%.

In the case of `NC(=O)CC[C@@H]1NC(=O)[C@H](CCCCNC(=O)c2ccco2)NC(=O)C2(CC2)CNC(=O)CCSSCCNC1=O` [B6-D1-Q/16], the “percent residual thrombin activity” value is on record as 101.173%.

On to `NCCCC[C@@H]1NC(=O)C2(CC2)CNC(=O)CCSSCCNC(=O)[C@H](CCC(N)=O)NC1=O` [B6-D1-Q/-], for which the “percent residual thrombin activity” value was 103.82%.

Consider `CC(C)C[C@@H]1NC(=O)[C@H](CCCNC(=O)c2c[nH]c(=O)cn2)NC(=O)C2(CC2)CNC(=O)CCSSCCNC1=O` [B6-D2-L/9], for which the “percent residual thrombin activity” value is 109.823%.

Consider `CC(C)C[C@@H]1NC(=O)[C@H](CCCNC(=O)COc2ccccc2)NC(=O)C2(CC2)CNC(=O)CCSSCCNC1=O` [B6-D2-L/13], for which the “percent residual thrombin activity” value turned out to be 118.291%.

As to `CC(C)[C@@H]1NC(=O)[C@H](CCCNC(=O)c2ccccc2)NC(=O)C2(CC2)CNC(=O)CCSSCCNC1=O` [B6-D2-V/1], the “percent residual thrombin activity” value amounted to 108.209%.

On to `CC(C)[C@@H]1NC(=O)[C@H](CCCN)NC(=O)C2(CC2)CNC(=O)CCSSCCNC1=O` [B6-D2-V/-], for which the “percent residual thrombin activity” value was found to be 112.468%.

Take `O=C1CCSSCCNC(=O)[C@H](Cc2c[nH]c3ccccc23)NC(=O)[C@H](CCCNC(=O)c2ccccc2)NC(=O)C2(CC2)CN1` [B6-D2-W/1]: the “percent residual thrombin activity” value was determined as 97.8863%.

With `O=C1CCSSCCNC(=O)[C@H](Cc2c[nH]c3ccccc23)NC(=O)[C@H](CCCNC(=O)c2cnccn2)NC(=O)C2(CC2)CN1` [B6-D2-W/2], the “percent residual thrombin activity” value worked out at 95.9188%.
